The values below come from ChEMBL document CHEMBL5465560, “Selectivity Literature for EUbOPEN Chemogenomic Library” (2024).

SMILES strings stand for the structures.

Test [1] has as its target T1, Ephrin type-B receptor 4 (Homo sapiens) (UniProt P54760).
T1 sequence (whole entry): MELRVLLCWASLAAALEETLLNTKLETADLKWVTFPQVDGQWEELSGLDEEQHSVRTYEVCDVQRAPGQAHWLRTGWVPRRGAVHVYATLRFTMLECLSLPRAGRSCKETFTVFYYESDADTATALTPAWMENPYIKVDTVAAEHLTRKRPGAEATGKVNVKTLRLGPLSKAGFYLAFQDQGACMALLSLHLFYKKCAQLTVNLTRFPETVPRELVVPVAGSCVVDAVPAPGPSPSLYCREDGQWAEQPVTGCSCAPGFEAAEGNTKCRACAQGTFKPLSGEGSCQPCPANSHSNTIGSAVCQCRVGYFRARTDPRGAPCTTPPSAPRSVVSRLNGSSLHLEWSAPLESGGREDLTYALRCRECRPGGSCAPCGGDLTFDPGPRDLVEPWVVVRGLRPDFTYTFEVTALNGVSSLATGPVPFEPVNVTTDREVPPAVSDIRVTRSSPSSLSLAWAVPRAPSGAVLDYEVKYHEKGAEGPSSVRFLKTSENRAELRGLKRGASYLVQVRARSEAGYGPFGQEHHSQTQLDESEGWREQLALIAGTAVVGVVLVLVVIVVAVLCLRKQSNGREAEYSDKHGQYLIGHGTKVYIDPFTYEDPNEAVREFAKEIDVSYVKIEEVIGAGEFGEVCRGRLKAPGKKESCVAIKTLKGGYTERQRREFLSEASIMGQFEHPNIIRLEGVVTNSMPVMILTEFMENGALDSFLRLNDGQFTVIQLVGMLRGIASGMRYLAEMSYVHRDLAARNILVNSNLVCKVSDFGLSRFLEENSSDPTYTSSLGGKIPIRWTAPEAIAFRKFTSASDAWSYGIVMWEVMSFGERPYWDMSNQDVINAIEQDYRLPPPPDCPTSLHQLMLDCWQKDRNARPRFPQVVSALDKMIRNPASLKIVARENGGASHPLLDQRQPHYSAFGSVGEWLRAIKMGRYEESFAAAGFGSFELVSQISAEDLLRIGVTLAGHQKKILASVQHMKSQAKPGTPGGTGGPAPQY
The experiment in a line: Selectivity interaction (KinomeScan (DiscoverX)) EUB0000666a EPHB4. The settings on record: at 10 µM.

The target of test [2] is Vascular endothelial growth factor receptor 1 (Homo sapiens) (UniProt P17948). The experiment in a line: Selectivity interaction (KinomeScan (DiscoverX)) EUB0000655a FLT1. The settings on record: at 10 µM.
In test [3] the target is T2, Alpha-2A adrenergic receptor (Homo sapiens) (UniProt P08913).
T2 sequence (whole entry): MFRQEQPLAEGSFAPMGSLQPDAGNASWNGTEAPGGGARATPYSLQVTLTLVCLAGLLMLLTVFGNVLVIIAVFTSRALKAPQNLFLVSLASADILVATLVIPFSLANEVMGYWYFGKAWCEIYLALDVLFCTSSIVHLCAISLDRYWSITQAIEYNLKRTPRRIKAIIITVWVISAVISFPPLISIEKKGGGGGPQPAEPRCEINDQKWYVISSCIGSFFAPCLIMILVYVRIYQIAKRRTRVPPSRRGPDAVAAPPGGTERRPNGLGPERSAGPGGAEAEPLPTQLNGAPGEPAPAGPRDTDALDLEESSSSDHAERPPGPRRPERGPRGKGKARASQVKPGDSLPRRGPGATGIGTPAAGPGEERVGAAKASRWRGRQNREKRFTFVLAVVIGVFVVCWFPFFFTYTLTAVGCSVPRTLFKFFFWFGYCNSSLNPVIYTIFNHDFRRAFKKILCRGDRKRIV
The experiment in a line: Selectivity interaction (GPCR panel (PDSP screen)) EUB0001079a ADRA2A. The following applies: at 10 µM.

In test [4] the target is RAC-alpha serine/threonine-protein kinase (Homo sapiens, UniProt P31749). The experiment in a line: Selectivity interaction (KinomeScan (DiscoverX)) EUB0001079a AKT1. The following applies: at 1 µM.
In test [5] the target is Phosphatidylinositol 4,5-bisphosphate 3-kinase catalytic subunit gamma isoform (Homo sapiens) (UniProt P48736). The experiment in a line: Selectivity interaction (KinomeScan (DiscoverX)) EUB0001619a PIK3CG. The following applies: at 1 µM.
Test [6] addresses RAF proto-oncogene serine/threonine-protein kinase (Homo sapiens) (UniProt P04049). The experiment in a line: Selectivity interaction (KinomeScan (DiscoverX)) EUB0001049a RAF1. The settings on record: at 1 µM.
In test [7] the target is T3, Tyrosine-protein kinase Tec (Homo sapiens) (UniProt P42680).
T3 sequence (whole entry): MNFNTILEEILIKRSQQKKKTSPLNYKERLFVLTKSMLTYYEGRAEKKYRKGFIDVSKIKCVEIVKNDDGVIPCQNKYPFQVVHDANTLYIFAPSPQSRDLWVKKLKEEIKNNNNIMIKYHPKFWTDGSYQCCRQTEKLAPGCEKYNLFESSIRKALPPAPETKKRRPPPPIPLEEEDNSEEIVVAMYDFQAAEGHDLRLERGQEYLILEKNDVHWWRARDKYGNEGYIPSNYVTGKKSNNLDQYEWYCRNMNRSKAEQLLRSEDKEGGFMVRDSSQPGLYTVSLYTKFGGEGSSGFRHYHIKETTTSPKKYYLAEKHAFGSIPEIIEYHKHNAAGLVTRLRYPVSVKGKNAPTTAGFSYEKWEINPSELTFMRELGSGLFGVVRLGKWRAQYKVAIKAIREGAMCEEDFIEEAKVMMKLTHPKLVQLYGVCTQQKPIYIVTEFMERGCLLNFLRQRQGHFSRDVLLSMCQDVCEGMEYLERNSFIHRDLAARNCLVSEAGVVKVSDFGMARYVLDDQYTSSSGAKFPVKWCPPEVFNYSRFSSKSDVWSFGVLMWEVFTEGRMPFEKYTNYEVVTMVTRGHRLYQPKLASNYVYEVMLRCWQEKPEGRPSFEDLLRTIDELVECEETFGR
The experiment in a line: Selectivity interaction (KinomeScan (DiscoverX)) EUB0000045b TEC.

Sequence of RAC-alpha serine/threonine-protein kinase (P31749 whole entry, canonical isoform): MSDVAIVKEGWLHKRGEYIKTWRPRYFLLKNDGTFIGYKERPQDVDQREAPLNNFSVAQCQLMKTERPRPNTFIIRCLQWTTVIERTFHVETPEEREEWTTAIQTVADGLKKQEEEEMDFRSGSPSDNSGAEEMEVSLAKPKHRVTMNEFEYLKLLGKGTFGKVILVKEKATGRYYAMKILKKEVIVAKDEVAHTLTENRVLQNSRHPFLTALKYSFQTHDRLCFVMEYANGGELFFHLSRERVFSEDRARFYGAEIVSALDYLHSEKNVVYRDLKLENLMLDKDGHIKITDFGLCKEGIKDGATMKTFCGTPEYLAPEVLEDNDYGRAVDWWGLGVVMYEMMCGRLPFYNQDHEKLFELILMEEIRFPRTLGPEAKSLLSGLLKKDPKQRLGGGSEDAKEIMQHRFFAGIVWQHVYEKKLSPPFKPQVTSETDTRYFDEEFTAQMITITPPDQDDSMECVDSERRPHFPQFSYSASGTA
Sequence of Phosphatidylinositol 4,5-bisphosphate 3-kinase catalytic subunit gamma isoform (Homo sapiens) (P48736 whole entry, looked up, canonical isoform): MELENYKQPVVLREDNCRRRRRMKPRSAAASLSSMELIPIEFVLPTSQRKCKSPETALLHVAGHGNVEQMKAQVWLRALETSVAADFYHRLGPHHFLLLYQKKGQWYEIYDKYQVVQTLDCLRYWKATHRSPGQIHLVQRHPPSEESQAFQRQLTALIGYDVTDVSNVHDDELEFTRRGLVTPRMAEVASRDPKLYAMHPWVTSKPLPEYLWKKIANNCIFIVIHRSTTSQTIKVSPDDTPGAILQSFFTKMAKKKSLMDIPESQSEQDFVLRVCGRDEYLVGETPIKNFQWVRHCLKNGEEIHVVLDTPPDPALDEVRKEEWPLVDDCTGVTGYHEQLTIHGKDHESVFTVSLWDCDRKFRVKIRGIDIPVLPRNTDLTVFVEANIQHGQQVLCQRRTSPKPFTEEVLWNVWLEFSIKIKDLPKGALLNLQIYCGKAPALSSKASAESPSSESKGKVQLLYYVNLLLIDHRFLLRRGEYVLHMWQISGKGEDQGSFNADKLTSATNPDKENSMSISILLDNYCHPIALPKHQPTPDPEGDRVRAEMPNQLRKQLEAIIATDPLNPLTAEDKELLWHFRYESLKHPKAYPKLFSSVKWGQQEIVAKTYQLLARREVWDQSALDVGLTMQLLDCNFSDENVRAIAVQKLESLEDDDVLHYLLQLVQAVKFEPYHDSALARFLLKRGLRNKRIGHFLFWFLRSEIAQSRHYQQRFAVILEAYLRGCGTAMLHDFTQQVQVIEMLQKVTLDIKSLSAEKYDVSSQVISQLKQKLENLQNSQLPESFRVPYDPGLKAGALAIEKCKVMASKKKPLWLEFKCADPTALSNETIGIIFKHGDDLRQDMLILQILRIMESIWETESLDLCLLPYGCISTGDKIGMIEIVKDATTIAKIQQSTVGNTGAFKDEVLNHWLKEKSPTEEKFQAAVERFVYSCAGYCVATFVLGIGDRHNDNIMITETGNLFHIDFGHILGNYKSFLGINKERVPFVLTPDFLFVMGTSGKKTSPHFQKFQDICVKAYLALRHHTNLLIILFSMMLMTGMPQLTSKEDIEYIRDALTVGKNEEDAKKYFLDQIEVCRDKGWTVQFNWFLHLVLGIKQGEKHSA
Sequence of Vascular endothelial growth factor receptor 1 (Homo sapiens) (P17948 whole entry): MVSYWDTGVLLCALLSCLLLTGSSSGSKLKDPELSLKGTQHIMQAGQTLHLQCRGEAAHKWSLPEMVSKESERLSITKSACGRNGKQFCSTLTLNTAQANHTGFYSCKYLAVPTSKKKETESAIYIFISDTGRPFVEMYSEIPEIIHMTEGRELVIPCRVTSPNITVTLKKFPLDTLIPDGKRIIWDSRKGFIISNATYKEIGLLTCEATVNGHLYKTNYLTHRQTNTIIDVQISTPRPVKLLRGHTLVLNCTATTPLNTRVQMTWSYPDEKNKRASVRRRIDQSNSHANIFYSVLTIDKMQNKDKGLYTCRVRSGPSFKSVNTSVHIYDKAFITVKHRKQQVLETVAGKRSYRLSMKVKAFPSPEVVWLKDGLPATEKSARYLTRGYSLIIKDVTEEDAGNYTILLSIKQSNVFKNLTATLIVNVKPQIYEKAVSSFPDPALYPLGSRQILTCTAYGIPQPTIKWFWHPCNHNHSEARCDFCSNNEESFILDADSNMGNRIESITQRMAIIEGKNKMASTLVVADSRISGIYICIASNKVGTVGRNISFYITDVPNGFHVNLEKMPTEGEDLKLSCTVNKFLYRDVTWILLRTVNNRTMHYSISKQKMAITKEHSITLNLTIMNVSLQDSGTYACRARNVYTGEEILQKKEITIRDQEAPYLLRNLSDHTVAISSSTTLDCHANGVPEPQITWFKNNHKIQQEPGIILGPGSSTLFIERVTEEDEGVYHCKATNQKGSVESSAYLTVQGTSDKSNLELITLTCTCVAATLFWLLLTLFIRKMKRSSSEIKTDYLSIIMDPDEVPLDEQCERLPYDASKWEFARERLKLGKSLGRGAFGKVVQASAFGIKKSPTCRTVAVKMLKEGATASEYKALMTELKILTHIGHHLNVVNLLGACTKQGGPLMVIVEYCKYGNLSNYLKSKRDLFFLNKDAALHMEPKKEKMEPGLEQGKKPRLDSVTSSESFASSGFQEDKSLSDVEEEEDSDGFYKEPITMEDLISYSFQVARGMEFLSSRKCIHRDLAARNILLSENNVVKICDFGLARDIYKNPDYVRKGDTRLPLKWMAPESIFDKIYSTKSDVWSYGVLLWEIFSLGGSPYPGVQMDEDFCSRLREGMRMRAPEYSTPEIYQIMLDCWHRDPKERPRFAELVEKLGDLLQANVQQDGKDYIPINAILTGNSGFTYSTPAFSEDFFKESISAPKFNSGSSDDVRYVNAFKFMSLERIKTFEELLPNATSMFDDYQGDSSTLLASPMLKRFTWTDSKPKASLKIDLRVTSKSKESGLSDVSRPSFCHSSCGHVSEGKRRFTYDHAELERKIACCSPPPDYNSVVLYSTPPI
Sequence of RAF proto-oncogene serine/threonine-protein kinase (Homo sapiens) (P04049 whole entry): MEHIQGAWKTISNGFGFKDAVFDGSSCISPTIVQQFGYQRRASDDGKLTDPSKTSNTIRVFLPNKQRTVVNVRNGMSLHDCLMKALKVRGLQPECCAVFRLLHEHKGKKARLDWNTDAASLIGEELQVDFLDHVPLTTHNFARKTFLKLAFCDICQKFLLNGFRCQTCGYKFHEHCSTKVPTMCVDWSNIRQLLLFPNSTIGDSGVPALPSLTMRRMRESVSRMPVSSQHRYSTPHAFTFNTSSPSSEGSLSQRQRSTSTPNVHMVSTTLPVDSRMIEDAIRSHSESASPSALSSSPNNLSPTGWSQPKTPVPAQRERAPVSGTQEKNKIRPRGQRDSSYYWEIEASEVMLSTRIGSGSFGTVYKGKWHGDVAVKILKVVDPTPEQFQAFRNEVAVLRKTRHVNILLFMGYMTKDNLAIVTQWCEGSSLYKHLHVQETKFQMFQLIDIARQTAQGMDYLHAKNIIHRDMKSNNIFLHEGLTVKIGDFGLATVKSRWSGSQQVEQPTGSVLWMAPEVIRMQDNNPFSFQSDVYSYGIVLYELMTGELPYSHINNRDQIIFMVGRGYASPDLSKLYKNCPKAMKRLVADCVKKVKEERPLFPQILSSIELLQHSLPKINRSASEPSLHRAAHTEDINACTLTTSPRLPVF

In turn, `O=C(NOC[C@H](O)CO)c1ccc(F)c(F)c1Nc1ccc(I)cc1F` registered a % of control in test [1] of 100%.

In test [2], `CN(C)CCOc1ccc(-c2nc(-c3ccncc3)c(-c3ccc4c(c3)CC/C4=N\O)[nH]2)cc1` had a % of control of 79%.

With `Nc1cnc(N2CCc3cc(S(=O)(=O)Nc4c(F)cc(Cl)cc4F)cc(N4CCCC4=O)c32)nc1` [TP-020n], the % of inhibition in test [3] is -10.1%. In test [4], the % of control is 100%.

With `N#Cc1cccc(-c2c[nH]c3ncnc(N4CCOCC4)c23)c1`, in test [5], the % of control stood at 79%.

On to `COc1cc(Nc2nc(C)cc(-c3cnn4nc(OC)ccc34)n2)cc(C(F)(F)F)c1`, for which the % of control in test [6] was 100%.

With `C=CC(=O)Nc1cc(-n2c(=O)ccc3cnc4ccc(-c5ccc(NS(C)(=O)=O)cc5)cc4c32)ccc1C`, the % of control in test [7] (at 1 µM) is 27%; in test [7] (at 10 µM) it was 4.2%.
